Each block holds one compound with its values, some of them ahead of it.
Tests used:
Assay in all cases: HTRF kinase assay
Settings in all cases: pH 7; 25 °C
[1] = molecular target: Hepatocyte growth factor receptor (Homo sapiens, UniProt P08581)
Protocol: The c-Met kinase activity was evaluated by homogeneous time-resolved fluorescence (HTRF) assays. In a 384-well plate, 20 µg/mL (Glue, Tyr) 4:1 was added, followed by the addition of 50 µL of 10 mM ATP solution diluted in kinase reaction buffer (50 mM HEPES, pH 7.0, […], and 0.1% NaN3) into each well. Various concentrations of compounds diluted in 10 µL of 1% DMSO (v/v) […]. The reaction was initiated by the addition of purified c-Met kinase diluated in 39 µL of kinase reaction buffer solution. The reaction was incubated for 30 min at 25 °C and stopped by the addition of 5 µL of Streptavidin-XL665 and 5 µL Tk Antibody Cryptate working solution to all of the wells.

[2] = molecular target: Vascular endothelial growth factor receptor 2 (Homo sapiens, UniProt P35968)
[3] = molecular target: T1, Epidermal growth factor receptor [1-973] (Homo sapiens, UniProt P00533)
T1 construct: 1-973

[4] = molecular target: Macrophage-stimulating protein receptor (Homo sapiens, UniProt Q04912)
Sequence of Macrophage-stimulating protein receptor (Q04912 25-304 limits assumed): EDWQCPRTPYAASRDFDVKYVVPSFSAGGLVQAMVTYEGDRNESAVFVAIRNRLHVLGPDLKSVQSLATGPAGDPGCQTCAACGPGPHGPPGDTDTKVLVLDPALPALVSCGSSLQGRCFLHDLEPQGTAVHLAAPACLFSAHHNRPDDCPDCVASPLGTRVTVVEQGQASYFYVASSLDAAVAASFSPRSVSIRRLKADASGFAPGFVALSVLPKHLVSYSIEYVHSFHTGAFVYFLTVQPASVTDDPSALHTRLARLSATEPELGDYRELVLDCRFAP
Sequence of Macrophage-stimulating protein receptor (Q04912 310-1400 limits assumed): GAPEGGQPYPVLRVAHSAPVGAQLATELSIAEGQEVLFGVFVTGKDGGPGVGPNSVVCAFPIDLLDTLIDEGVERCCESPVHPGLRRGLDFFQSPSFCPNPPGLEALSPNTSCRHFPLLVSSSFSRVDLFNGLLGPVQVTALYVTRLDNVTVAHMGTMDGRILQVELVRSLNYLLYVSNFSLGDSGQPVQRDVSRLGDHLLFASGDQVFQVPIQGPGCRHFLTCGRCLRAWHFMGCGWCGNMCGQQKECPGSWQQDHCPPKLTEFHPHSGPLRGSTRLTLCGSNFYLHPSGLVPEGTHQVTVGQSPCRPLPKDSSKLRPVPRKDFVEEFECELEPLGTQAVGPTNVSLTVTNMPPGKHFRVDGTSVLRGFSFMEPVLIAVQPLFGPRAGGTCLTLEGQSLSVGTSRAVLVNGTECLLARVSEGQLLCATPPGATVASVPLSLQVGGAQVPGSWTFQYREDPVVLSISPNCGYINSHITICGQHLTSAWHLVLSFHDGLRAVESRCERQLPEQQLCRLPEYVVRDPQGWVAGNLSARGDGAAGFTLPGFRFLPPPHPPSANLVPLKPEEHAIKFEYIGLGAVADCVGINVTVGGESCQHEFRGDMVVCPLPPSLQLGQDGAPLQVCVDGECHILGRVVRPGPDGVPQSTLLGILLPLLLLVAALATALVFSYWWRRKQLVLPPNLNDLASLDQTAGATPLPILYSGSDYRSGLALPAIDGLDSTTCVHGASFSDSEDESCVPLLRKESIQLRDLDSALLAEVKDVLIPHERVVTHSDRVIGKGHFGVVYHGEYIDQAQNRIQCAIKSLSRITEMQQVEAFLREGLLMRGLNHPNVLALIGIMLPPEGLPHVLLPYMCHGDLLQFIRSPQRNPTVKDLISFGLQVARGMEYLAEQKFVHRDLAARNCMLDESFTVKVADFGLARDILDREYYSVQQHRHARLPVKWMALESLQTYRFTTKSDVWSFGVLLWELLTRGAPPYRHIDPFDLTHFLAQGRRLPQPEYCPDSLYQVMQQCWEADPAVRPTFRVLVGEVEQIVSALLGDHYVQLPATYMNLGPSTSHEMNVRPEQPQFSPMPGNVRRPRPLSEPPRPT

[5] = molecular target: T2, Receptor-type tyrosine-protein kinase FLT3 (Homo sapiens, UniProt P36888)
T2 sequence (P36888 whole entry): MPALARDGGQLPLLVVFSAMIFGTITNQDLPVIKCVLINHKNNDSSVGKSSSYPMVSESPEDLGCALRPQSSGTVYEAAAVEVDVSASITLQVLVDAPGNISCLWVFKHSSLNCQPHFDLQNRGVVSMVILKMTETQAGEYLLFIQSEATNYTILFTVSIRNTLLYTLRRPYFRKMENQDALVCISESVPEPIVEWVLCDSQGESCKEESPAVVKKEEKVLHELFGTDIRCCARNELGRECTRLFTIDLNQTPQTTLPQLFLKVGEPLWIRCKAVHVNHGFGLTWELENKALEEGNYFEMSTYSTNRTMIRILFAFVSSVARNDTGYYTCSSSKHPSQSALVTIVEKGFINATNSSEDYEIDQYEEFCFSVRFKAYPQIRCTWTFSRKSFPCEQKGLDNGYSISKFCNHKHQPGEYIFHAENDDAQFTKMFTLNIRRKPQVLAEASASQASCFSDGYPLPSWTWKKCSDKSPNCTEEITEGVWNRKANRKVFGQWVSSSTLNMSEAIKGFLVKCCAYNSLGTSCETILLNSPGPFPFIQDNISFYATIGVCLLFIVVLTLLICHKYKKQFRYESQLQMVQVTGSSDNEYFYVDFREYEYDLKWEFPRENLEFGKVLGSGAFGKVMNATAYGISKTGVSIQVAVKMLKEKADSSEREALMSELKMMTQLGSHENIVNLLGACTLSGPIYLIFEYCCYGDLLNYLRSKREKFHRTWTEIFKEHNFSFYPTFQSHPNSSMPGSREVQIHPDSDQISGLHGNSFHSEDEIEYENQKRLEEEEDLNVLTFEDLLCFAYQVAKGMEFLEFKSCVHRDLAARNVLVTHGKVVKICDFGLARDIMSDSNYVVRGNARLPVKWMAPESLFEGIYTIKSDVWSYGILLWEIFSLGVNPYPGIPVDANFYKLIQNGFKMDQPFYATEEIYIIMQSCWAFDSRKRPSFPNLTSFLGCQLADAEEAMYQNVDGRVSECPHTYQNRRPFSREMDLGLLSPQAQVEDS

[6] = molecular target: Vascular endothelial growth factor receptor 1 (Homo sapiens, UniProt P17948)
Sequence of Vascular endothelial growth factor receptor 1 (P17948 whole entry): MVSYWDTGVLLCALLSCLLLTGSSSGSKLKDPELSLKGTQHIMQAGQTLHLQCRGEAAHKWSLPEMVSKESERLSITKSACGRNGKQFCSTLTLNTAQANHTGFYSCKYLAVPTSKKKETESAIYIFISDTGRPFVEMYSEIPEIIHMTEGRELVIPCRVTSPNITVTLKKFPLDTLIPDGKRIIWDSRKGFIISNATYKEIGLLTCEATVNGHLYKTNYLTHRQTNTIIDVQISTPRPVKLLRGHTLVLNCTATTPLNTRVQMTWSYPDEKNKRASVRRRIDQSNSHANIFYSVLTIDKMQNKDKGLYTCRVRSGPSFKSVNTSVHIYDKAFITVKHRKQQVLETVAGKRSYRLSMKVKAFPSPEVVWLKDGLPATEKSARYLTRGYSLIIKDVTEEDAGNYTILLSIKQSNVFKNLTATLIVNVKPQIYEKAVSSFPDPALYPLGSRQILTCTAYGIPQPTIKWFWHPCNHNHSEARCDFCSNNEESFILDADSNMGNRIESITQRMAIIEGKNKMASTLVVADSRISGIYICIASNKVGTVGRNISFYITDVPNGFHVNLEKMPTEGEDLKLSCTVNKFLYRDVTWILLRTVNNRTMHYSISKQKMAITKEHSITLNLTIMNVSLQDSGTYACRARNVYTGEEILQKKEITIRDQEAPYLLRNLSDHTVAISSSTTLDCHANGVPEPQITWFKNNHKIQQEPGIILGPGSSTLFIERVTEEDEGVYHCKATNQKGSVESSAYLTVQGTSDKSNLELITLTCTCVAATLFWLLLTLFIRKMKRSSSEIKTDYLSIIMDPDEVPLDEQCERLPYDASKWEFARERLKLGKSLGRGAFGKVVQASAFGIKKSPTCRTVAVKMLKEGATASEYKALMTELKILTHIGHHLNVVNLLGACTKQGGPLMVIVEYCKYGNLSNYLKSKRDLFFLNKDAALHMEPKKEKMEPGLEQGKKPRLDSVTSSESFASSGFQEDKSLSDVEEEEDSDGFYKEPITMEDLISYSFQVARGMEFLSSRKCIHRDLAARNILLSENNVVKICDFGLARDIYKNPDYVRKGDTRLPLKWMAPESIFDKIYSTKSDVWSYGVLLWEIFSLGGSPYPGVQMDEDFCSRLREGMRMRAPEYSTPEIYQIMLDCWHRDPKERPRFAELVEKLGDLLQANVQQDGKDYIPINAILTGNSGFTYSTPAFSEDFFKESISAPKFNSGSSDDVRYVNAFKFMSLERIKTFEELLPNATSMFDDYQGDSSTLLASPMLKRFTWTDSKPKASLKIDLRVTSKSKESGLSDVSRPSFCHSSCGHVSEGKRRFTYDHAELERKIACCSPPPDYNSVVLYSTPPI

[7] = molecular target: T3, Mast/stem cell growth factor receptor Kit [1-973] (Homo sapiens, UniProt P10721)
T3 construct: 1-973
T3 sequence (P10721 1-973): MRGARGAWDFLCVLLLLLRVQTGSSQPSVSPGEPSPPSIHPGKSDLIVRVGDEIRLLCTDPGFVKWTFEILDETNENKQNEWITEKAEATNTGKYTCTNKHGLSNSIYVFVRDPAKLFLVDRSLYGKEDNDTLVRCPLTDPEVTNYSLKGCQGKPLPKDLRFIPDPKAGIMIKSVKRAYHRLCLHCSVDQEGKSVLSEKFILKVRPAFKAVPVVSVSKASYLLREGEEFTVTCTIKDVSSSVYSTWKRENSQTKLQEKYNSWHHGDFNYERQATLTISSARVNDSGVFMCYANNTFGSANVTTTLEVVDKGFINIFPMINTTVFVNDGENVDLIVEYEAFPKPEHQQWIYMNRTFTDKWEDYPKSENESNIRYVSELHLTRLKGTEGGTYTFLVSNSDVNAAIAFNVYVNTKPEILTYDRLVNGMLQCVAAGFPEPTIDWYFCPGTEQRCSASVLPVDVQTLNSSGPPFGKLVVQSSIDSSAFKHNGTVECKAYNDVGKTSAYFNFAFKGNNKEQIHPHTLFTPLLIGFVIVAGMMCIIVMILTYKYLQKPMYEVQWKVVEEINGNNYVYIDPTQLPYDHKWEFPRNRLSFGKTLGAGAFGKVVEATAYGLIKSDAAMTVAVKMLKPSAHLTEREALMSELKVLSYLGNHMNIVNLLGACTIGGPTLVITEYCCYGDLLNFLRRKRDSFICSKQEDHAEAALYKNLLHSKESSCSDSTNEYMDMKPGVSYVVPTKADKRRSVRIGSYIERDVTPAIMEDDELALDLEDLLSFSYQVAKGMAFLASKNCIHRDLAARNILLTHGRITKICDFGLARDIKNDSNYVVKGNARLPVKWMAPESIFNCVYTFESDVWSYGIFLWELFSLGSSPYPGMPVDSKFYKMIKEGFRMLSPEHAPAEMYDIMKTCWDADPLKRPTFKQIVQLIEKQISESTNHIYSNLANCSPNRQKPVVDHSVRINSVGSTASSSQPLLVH

[8] = molecular target: T4, Platelet-derived growth factor receptor alpha [1-973] (Homo sapiens, UniProt P16234)
T4 construct: 1-973

Sequence of Hepatocyte growth factor receptor (P08581 whole entry): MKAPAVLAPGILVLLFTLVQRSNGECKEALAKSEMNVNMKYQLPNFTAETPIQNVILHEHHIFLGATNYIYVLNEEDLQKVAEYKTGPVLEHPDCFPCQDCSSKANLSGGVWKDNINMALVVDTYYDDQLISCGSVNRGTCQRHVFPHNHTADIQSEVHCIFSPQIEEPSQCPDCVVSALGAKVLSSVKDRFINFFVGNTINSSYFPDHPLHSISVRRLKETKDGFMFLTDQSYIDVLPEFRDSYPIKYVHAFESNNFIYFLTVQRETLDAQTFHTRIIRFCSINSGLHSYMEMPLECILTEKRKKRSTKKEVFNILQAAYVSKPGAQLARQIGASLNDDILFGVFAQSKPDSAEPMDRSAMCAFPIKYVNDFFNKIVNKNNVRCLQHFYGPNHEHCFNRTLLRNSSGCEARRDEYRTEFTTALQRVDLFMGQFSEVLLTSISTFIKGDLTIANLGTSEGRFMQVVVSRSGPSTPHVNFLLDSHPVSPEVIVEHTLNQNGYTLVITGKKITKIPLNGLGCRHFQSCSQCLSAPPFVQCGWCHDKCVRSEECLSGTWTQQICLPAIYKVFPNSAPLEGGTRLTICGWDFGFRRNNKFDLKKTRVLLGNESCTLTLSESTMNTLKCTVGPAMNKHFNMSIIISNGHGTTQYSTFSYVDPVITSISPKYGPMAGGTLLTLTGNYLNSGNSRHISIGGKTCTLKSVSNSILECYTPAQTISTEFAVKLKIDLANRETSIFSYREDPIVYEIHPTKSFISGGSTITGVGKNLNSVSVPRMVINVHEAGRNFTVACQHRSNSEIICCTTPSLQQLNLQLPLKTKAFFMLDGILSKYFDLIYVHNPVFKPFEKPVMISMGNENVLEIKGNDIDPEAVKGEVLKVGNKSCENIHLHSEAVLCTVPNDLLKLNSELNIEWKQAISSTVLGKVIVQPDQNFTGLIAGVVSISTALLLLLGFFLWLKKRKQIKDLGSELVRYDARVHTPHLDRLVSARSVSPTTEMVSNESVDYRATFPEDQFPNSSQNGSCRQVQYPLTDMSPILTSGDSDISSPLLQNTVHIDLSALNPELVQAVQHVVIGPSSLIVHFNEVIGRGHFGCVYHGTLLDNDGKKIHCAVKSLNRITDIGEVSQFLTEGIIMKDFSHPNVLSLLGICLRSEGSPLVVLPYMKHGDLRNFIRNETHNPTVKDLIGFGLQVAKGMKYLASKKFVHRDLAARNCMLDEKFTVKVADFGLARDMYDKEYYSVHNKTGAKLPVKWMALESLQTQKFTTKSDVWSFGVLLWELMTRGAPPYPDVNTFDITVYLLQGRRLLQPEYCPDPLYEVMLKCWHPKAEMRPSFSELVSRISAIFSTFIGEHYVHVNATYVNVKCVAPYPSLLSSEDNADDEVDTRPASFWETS

SMILES: COc1cc2c(Oc3ccc(N=Cc4c(O)n(-c5ccccc5F)c(=O)n4C)cc3F)ccnc2cc1OCCCN1CCOCC1 [(E)-5-(((3-fluoro-4-((6-methoxy-7-(3-morpholinopropoxy)quinolin-4-yl)oxy)phenyl)amino)methylene)-3-(2-fluorophenyl)-1-methylimidazolidine-2,4-dione (40)]
IC50 [1]: 8.78 nM

SMILES: COc1cc2c(Oc3ccc(N=Cc4c(C)[nH]n(-c5ccccc5C(F)(F)F)c4=O)cc3F)ccnc2cc1OCCCN1CCCCC1 [(Z)-4-(((3-fluoro-4-((6-methoxy-7-(3-(piperidin-1-yl)propoxy)quinolin-4-yl)oxy)phenyl)amino)methylene)-3-methyl-1-(2-(trifluoromethyl)phenyl)-1H-pyrazol-5(4H)-one (21)]
IC50 [1]: 6.63 nM

SMILES: COc1cc2c(Oc3ccc(N=Cc4c(C)[nH]n(-c5ccccc5C(F)(F)F)c4=O)cc3F)ccnc2cc1OCCCN1CCCC1 [(Z)-4-(((3-fluoro-4-((6-methoxy-7-(3-(pyrrolidin-1-yl)propoxy)quinolin-4-yl)oxy)phenyl)amino)methylene)-3-methyl-1-(2-(trifluoromethyl)phenyl)-1H-pyrazol-5(4H)-one (13)]
IC50 [1]: 5.04 nM

Compounds with a lower IC50 [1], results first:

IC50 [1]: 2.75 nM
SMILES: COc1cc2c(Oc3ccc(N=Cc4c(O)n(-c5ccccc5C(F)(F)F)c(=O)n4C)cc3F)ccnc2cc1OCCCN1CCCC1 [(E)-5-(((3-fluoro-4-((6-methoxy-7-(3-(pyrrolidin-1-yl)propoxy)quinolin-4-yl)oxy)phenyl)amino)methylene)-1-methyl-3-(2-(trifluoromethyl)phenyl)imidazolidine-2,4-dione (38)]

IC50 [2]: 326 nM
IC50 [3]: > 10000 nM
IC50 [4]: 4.24 nM
IC50 [5]: 8.38 nM
IC50 [6]: 8.56 nM
IC50 [7]: 2.3 nM
IC50 [8]: 32.2 nM
IC50 [1]: 2.2 nM
SMILES: COc1cc2c(Oc3ccc(N=Cc4c(C)[nH]n(-c5ccccc5C(F)(F)F)c4=O)cc3F)ccnc2cc1OCCCN1CCOCC1 [(Z)-4-(((3-fluoro-4-((6-methoxy-7-(3-morpholinopropoxy)quinolin-4-yl)oxy)phenyl)amino)methylene)-3-methyl-1-(2-(trifluoromethyl)phenyl)-1H-pyrazol-5(4H)-one (17)]

Reference: BindingDB's records for doi:10.1016/j.bioorg.2014.07.011 (Shenyang Pharmaceutical University, 2014)
